We go through eight compounds from ChEMBL document CHEMBL5442741, “ASAP - In vitro kinase profile” (2024).

Experiment [1] concerns the target ALK tyrosine kinase receptor (Homo sapiens) (UniProt Q9UM73). The experiment in a line: Enzymatic radiometric [Km ATP] KinaseProfiler LeadHunter assay, kinase: ALK, catalogue number: 14-555KP The assay has been performed by Eurofins Discovery. The note with it: ATP concentration 200.0 uM, Test compound concentration 10.0 uM.
For experiment [2], the target named is RAF proto-oncogene serine/threonine-protein kinase (Homo sapiens) (UniProt P04049). Briefly: Enzymatic radiometric [Km ATP] KinaseProfiler LeadHunter assay, kinase: c-RAF, catalogue number: 14-352KP The assay has been performed by Eurofins Discovery. The note with it: ATP concentration 120.0 uM, Test compound concentration 10.0 uM.
Experiment [3] addresses Epidermal growth factor receptor (Homo sapiens) (UniProt P00533). The experiment in a line: Enzymatic radiometric [Km ATP] KinaseProfiler LeadHunter assay, kinase: EGFR, catalogue number: 14-531KP The assay has been performed by Eurofins Discovery. Conditions: ATP concentration 10.0 uM, Test compound concentration 10.0 uM.
For experiment [4], the target named is Ephrin type-A receptor 5 (Homo sapiens) (UniProt P54756). The experiment in a line: Enzymatic radiometric [Km ATP] KinaseProfiler LeadHunter assay, kinase: EphA5, catalogue number: 14-639KP The assay has been performed by Eurofins Discovery. The note with it: ATP concentration 10.0 uM, Test compound concentration 10.0 uM.
Experiment [5] addresses Insulin-like growth factor 1 receptor (Homo sapiens) (UniProt P08069). Briefly: Enzymatic radiometric [Km ATP] KinaseProfiler LeadHunter assay, kinase: IGF-1R, catalogue number: 14-465KP The assay has been performed by Eurofins Discovery. Conditions: ATP concentration 200.0 uM, Test compound concentration 10.0 uM.
Experiment [6] addresses T1, Inhibitor of nuclear factor kappa-B kinase subunit alpha (Homo sapiens) (UniProt O15111).
T1 sequence (whole entry): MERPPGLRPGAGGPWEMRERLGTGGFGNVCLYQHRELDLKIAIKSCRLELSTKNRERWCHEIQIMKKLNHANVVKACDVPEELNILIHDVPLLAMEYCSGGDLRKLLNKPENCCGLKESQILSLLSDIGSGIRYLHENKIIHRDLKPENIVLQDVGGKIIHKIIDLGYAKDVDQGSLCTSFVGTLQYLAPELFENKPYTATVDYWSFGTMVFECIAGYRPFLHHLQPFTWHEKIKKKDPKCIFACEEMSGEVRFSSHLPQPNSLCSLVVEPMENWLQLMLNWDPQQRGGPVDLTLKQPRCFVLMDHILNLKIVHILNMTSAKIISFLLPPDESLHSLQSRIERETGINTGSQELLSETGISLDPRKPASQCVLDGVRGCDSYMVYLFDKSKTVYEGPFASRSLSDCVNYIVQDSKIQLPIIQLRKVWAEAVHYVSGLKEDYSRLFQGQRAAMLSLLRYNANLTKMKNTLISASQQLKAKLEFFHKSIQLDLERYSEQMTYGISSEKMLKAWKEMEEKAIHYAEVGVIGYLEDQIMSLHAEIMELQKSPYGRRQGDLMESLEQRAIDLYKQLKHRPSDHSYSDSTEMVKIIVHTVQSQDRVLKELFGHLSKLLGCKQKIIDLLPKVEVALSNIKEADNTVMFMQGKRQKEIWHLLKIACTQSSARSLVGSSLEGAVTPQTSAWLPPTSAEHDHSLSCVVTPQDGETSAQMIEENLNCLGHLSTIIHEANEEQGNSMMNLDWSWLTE
The experiment in a line: Enzymatic radiometric [Km ATP] KinaseProfiler LeadHunter assay, kinase: IKK-alpha, catalogue number: 14-461KP The assay has been performed by Eurofins Discovery. Conditions: ATP concentration 10.0 uM, Test compound concentration 10.0 uM.

The target of experiment [7] is T2, Interleukin-1 receptor-associated kinase 4 (Homo sapiens) (UniProt Q9NWZ3).
T2 sequence (whole entry): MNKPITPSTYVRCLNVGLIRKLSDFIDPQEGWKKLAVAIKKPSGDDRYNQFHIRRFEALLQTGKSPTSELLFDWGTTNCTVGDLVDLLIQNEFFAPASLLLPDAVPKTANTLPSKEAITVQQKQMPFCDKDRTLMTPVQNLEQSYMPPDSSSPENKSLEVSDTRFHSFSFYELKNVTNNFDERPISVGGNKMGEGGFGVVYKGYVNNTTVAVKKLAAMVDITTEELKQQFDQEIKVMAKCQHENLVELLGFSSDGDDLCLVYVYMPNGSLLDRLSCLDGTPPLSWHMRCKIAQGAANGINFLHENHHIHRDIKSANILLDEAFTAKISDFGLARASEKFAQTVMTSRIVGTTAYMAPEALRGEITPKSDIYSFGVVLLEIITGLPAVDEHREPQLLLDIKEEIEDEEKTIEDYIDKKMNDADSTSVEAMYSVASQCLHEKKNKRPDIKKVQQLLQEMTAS
Briefly: Enzymatic radiometric [Km ATP] KinaseProfiler LeadHunter assay, kinase: IRAK4, catalogue number: 14-599KP The assay has been performed by Eurofins Discovery. The note with it: ATP concentration 200.0 uM, Test compound concentration 10.0 uM.

For experiment [8], the target named is Vascular endothelial growth factor receptor 2 (Homo sapiens) (UniProt P35968). The experiment in a line: Enzymatic radiometric [Km ATP] KinaseProfiler LeadHunter assay, kinase: KDR, catalogue number: 14-630KP The assay has been performed by Eurofins Discovery. Conditions: ATP concentration 90.0 uM, Test compound concentration 10.0 uM.
Experiment [9] deals with Mitogen-activated protein kinase kinase kinase 9 (Homo sapiens) (UniProt P80192). The experiment in a line: Enzymatic radiometric [Km ATP] KinaseProfiler LeadHunter assay, kinase: MLK1, catalogue number: 14-690KP The assay has been performed by Eurofins Discovery. The note with it: ATP concentration 45.0 uM, Test compound concentration 10.0 uM.
The target of experiment [10] is Serine/threonine-protein kinase PAK 2 (Homo sapiens) (UniProt Q13177). Briefly: Enzymatic radiometric [Km ATP] KinaseProfiler LeadHunter assay, kinase: PAK2, catalogue number: 14-481KP The assay has been performed by Eurofins Discovery. The note with it: ATP concentration 90.0 uM, Test compound concentration 10.0 uM.
Experiment [11] has as its target Serine/threonine-protein kinase pim-1 (Homo sapiens) (UniProt P11309). Briefly: Enzymatic radiometric [Km ATP] KinaseProfiler LeadHunter assay, kinase: Pim-1, catalogue number: 14-573KP The assay has been performed by Eurofins Discovery. Conditions: ATP concentration 90.0 uM, Test compound concentration 10.0 uM.
Experiment [12] deals with cAMP-dependent protein kinase catalytic subunit alpha (Homo sapiens) (UniProt P17612). The experiment in a line: Enzymatic radiometric [Km ATP] KinaseProfiler LeadHunter assay, kinase: PKA, catalogue number: 14-440KP The assay has been performed by Eurofins Discovery. The note with it: ATP concentration 10.0 uM, Test compound concentration 10.0 uM.
The target in experiment [13] is Protein kinase C theta type (Homo sapiens) (UniProt Q04759). The experiment in a line: Enzymatic radiometric [Km ATP] KinaseProfiler LeadHunter assay, kinase: PKC-theta, catalogue number: 14-444KP The assay has been performed by Eurofins Discovery. Conditions: ATP concentration 15.0 uM, Test compound concentration 10.0 uM.
Experiment [14] addresses Serine/threonine-protein kinase PLK3 (Homo sapiens) (UniProt Q9H4B4). Briefly: Enzymatic radiometric [Km ATP] KinaseProfiler LeadHunter assay, kinase: Plk3, catalogue number: 14-572KP The assay has been performed by Eurofins Discovery. The note with it: ATP concentration 70.0 uM, Test compound concentration 10.0 uM.
Experiment [15] addresses PI3-kinase p110-delta/p85-alpha (Homo sapiens) (UniProt P27986+O00329). The experiment in a line: Enzymatic radiometric [Km ATP] KinaseProfiler LeadHunter assay, kinase: PI3 Kinase (p110-delta/p85-alpha), catalogue number: 14-604KP The assay has been performed by Eurofins Discovery. The format is protein-complex assay. Conditions: ATP concentration 200.0 uM, Test compound concentration 10.0 uM.

Each structure is given as a SMILES string. “And” between values parts separate entries of the source, which are not always exact repeats. Identical values can stand only once.

Epidermal growth factor receptor (Homo sapiens), sequence (P00533 whole entry): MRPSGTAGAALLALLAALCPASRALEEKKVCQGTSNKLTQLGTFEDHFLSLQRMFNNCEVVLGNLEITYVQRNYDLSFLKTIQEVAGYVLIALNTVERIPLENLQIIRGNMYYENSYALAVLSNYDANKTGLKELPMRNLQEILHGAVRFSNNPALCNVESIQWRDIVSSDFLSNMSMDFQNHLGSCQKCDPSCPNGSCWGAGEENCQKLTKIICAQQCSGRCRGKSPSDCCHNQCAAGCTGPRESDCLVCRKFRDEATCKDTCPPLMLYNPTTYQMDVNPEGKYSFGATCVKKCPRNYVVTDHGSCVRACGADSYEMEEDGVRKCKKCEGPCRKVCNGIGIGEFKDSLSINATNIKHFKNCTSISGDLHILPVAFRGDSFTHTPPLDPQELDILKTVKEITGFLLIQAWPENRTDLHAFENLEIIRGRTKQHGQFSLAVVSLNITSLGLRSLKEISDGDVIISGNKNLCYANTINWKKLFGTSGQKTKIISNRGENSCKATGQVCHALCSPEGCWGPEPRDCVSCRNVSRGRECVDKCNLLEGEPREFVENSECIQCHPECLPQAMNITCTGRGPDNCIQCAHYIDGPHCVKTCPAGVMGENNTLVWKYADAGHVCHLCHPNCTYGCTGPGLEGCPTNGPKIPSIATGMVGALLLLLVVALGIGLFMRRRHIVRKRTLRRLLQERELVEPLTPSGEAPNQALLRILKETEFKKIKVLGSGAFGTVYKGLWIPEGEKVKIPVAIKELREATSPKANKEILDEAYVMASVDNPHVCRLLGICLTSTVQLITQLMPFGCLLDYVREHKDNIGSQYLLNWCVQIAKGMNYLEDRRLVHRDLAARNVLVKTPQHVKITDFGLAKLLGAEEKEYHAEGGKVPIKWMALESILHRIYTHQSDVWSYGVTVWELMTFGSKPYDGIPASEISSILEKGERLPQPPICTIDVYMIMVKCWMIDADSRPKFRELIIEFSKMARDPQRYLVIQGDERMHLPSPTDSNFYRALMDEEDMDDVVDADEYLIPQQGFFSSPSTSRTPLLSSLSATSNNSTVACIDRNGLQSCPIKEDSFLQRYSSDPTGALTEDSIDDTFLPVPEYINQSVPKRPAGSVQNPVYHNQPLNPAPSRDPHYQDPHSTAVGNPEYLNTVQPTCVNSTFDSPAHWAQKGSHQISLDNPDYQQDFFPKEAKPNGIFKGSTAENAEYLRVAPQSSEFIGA
Serine/threonine-protein kinase pim-1 (Homo sapiens), sequence (P11309 whole entry, looked up): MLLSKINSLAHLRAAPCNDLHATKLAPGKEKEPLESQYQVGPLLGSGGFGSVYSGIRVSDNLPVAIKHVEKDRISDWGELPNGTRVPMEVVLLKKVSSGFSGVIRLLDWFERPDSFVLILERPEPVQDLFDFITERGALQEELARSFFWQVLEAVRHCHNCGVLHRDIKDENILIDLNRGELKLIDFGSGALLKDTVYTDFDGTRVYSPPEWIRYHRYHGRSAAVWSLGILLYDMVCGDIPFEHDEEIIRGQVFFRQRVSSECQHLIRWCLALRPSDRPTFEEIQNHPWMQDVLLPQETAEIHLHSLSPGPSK
Serine/threonine-protein kinase PLK3 (Homo sapiens), sequence (Q9H4B4 whole entry, looked up): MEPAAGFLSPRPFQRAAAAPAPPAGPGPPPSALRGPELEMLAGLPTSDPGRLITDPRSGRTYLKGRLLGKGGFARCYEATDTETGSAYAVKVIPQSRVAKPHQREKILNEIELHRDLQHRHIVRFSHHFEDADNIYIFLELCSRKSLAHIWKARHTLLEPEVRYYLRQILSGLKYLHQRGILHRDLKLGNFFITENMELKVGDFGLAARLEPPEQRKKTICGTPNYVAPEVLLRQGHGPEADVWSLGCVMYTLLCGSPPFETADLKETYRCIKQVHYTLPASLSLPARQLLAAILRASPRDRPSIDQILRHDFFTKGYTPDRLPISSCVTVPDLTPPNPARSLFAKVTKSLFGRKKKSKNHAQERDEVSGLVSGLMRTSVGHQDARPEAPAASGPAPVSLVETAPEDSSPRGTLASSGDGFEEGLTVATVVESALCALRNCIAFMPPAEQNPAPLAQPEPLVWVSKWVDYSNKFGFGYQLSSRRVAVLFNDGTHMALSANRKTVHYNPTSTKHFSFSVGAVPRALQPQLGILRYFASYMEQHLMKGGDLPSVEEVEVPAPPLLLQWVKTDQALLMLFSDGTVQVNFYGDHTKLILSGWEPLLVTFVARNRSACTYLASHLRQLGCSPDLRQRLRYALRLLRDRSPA
Vascular endothelial growth factor receptor 2 (Homo sapiens), sequence (P35968 whole entry): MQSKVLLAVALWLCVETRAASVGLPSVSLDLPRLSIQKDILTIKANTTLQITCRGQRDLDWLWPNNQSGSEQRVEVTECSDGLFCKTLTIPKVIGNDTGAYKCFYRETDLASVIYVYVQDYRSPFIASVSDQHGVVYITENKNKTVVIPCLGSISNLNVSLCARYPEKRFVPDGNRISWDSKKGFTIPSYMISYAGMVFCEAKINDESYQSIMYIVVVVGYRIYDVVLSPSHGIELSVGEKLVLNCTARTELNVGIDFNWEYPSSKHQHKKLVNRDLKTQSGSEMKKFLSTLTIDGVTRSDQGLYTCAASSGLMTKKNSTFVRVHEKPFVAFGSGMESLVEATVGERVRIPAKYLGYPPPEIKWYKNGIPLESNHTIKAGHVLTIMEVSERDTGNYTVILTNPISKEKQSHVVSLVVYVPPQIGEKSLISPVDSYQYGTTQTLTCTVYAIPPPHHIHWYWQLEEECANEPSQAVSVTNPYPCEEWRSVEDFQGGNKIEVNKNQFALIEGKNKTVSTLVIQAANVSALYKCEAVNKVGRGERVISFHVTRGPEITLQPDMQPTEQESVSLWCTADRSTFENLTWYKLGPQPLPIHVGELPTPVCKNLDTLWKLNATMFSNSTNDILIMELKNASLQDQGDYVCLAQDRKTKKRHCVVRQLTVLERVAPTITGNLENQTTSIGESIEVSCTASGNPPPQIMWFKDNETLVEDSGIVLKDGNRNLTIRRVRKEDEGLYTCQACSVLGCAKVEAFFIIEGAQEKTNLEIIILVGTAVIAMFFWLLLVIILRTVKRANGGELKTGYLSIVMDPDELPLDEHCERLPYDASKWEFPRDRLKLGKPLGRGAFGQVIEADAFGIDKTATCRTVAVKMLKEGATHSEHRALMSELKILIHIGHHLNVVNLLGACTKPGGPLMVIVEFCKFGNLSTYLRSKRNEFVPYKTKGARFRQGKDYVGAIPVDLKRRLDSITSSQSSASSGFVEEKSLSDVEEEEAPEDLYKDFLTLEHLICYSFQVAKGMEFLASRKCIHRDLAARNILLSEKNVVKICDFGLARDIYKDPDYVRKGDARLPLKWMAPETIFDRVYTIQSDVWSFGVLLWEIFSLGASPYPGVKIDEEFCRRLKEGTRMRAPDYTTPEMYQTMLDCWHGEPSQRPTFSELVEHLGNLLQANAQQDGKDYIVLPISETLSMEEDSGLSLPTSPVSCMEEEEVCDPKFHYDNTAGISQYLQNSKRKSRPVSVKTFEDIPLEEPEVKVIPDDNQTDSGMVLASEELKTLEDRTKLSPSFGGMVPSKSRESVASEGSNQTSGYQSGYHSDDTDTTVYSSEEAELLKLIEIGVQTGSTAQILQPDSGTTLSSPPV
RAF proto-oncogene serine/threonine-protein kinase (Homo sapiens), sequence (P04049 whole entry): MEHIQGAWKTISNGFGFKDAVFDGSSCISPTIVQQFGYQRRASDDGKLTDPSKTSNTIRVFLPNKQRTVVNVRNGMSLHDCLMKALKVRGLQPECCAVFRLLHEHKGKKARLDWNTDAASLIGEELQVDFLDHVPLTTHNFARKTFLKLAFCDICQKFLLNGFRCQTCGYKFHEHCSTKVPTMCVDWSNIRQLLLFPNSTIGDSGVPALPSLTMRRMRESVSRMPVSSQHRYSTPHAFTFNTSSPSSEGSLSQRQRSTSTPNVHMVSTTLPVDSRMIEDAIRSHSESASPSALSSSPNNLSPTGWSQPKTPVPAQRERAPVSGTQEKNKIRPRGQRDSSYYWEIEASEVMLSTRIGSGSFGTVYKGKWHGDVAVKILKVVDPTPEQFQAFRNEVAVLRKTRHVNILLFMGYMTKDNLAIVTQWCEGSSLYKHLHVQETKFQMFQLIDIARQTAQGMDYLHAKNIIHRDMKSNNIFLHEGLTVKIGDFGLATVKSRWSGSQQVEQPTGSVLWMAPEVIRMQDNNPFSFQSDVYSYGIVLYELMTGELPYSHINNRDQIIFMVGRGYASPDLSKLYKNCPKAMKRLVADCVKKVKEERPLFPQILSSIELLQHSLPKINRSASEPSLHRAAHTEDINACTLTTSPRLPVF
Serine/threonine-protein kinase PAK 2 (Homo sapiens), sequence (Q13177 whole entry): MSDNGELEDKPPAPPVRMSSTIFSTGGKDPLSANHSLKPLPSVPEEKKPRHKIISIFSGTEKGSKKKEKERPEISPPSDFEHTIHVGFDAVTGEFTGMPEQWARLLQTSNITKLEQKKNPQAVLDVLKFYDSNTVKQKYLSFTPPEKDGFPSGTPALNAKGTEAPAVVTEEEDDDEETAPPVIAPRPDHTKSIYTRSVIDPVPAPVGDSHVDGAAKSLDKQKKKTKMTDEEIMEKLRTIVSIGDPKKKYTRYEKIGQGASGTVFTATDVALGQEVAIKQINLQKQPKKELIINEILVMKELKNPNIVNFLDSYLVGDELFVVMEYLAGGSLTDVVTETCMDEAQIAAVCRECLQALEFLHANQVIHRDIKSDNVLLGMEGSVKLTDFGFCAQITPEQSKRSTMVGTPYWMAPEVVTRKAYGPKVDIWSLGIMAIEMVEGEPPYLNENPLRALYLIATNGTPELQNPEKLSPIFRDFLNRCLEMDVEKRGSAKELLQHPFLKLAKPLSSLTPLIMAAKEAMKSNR

As to `CC(C)[C@H](Nc1ncnc2[nH]ccc12)c1ccc2c(c1)S(=O)(=O)CCC2`, the Activity was found to be 100% in experiment [1]; 107% in experiment [2]; 95% in experiment [3]; 102% in [4]; 100% in experiment [5]; 92% in [6]. In addition, the Activity in [7] came to 112%; in experiment [8], 86%; in [9] it was 84%; in [10] it was 102%; in experiment [11] it was 91%; in experiment [12], 89%. Besides, the Activity in experiment [13] amounted to 88%; in [14], 112%; in experiment [15], 99%.
Consider `Cc1nn(C)cc1-c1cc2c(N[C@H](c3ccc4c(c3)S(=O)(=O)CCC4)C(C)C)ncnc2[nH]1`, for which the Activity was 99% in experiment [1]; 93% in experiment [2]; 87% in [3]; 74% in [4]; 97% in experiment [5]; 94% in experiment [6]. In addition, the Activity in experiment [7] came out at 107%; in [8], 88%; in experiment [9] it was 79%; in [10] it was 100%; in [11], 95%; in [12], 95%. Moreover, the Activity in experiment [13] came to 106%; in experiment [14], 104%; in experiment [15], 101%.
With `CC(C)[C@H](Nc1ncnc2[nH]c(-c3cnn(C)c3C#N)cc12)c1ccc2c(n1)OCCO2`, the Activity amounted to 116% in experiment [1]; 97% in [2]; 90% in experiment [3]; 102% in [4]; 85% in experiment [5]; 120% in experiment [6]. In addition, the Activity came out at 106% in [7]; 76% in experiment [8]; 73% in [9]; 99% in experiment [10]; 98% in experiment [11]; 82% in experiment [12]. The figures for the Activity in experiment [13], in experiment [14] and in experiment [15] were 96%, 102% and 66%, respectively.
In the case of `CC(C)[C@@H](Nc1ncnc2[nH]ccc12)c1ccc2c(c1)S(=O)(=O)CCC2`, the Activity in experiment [1] was found to be 93%; in [2] it was 97%; in experiment [3], 102%; in experiment [4], 110%; in experiment [5] it was 88%; in experiment [6] it was 91%. Also, the Activity in experiment [7] is 88%; in experiment [8], 82%; in experiment [9], 81%; in [10] it was 110%; in [11] it was 80%; in experiment [12], 98%. Besides, the Activity was determined as 101% in experiment [13], 103% in experiment [14] and 101% in experiment [15].
With `CC(C)[C@@H](Nc1ncnc2[nH]c(-c3cnn(C)c3C#N)cc12)c1ccc2c(n1)OCCO2`, the Activity is 103% and 106% in experiment [1]; 81% and 90% in [2]; 81% and 77% in experiment [3]; 91% and 90% in experiment [4]; 108% and 94% in experiment [5]; 111% and 104% in experiment [6]. The Activity in experiment [7] is 100% and 99%; in experiment [8] it was 80% and 86%; in experiment [9] it was 81% and 82%; in experiment [10] it was 95% and 99%; in [11], 79% and 99%; in [12] it was 92% and 93%. The Activity in experiment [13] is 93% and 111%; in experiment [14], 90% and 89%; in experiment [15] it was 55% and 61%.
`C[C@H](C(=O)O)[C@@H](NC(=O)c1ncnc2[nH]ccc12)c1ccc(Br)cc1`: the Activity in experiment [1] came out at 99%; in experiment [2], 108%; in [3], 93%; in [4], 99%; in [5] it was 95%; in experiment [6], 99%. Moreover, the Activity is 106% in experiment [7]; 77% in experiment [8]; 86% in [9]; 95% in [10]; 95% in [11]; 87% in [12]. The Activity stood at 100% in experiment [13], 98% in experiment [14] and 97% in experiment [15].
`CNC(=O)Cn1cc(-c2cc3c(N[C@@H](c4ccc5c(c4)S(=O)(=O)CCC5)C(C)C)ncnc3[nH]2)cn1`: the Activity was determined as 95% in experiment [1]; 102% in experiment [2]; 98% in experiment [3]; 80% in [4]; 105% in [5]; 84% in experiment [6]. The Activity in experiment [7] came out at 101%; in [8], 91%; in [9], 89%; in experiment [10] it was 103%; in experiment [11], 97%; in [12], 99%. In addition, the Activity is 91% in experiment [13], 98% in experiment [14] and 87% in experiment [15].
For `COc1ccc([C@@H](Cc2nnn[nH]2)NC(=O)c2ncnc3[nH]ccc23)cc1`, the Activity in experiment [1] turned out to be 95%; in experiment [2], 90%; in experiment [3], 96%; in [4], 106%; in [5], 106%; in experiment [6] it was 99%. Also, the Activity in experiment [7] is 91%; in experiment [8], 79%; in experiment [9], 85%; in experiment [10], 102%; in experiment [11] it was 91%; in experiment [12] it was 105%. Also, the Activity in experiment [13] stood at 90%; in [14], 102%; in experiment [15] it was 99%.
